Values after ≈ are worked out from the molar mass of the structure shown. Active and inactive are the calls of the source. No cut-off for these calls is given here.
Assays:
[1] = system: Enterococcus faecalis; experiment: Antibacterial activity against Enterococcus faecalis ATCC 29212 assessed as diameter of inhibition zone at 0.5 mg/ml incubated for 24 hrs by agar diffusion method; format: functional; conditions: read-out: DIZ
[2] = system: Staphylococcus aureus; experiment: Antibacterial activity against Staphylococcus aureus ATCC 29213 assessed as diameter of inhibition zone at 0.5 mg/ml incubated for 24 hrs by agar diffusion method; format: functional; conditions: read-out: DIZ
[3] = system: Staphylococcus aureus; experiment: Antibacterial activity against Staphylococcus aureus ATCC 29213 assessed as reduction in bacterial growth incubated for 1 day by paper disk diffusion method; format: functional; conditions: ATCC 29213, 24 h
[4] = system: Salmonella typhimurium; experiment: Antibacterial activity against Salmonella typhi ATCC 6539 assessed as diameter of inhibition zone at 0.5 mg/ml incubated for 24 hrs by agar diffusion method; format: functional, Salmonella enterica subsp. enterica serovar Typhimurium; conditions: Salmonella enterica, read-out: DIZ
[5] = system: Aspergillus brasiliensis; experiment: Antifungal activity against Aspergillus brasiliensis ATCC 16404 assessed as reduction in bacterial growth incubated for 3 days by paper disk diffusion method; format: functional
[6] = system: Candida albicans; experiment: Antifungal activity against Candida albicans ATCC 10231 assessed as reduction in bacterial growth incubated for 1 day by paper disk diffusion method; format: functional
[7] = system: Escherichia coli; experiment: Antibacterial activity against Escherichia coli ATCC 25922 assessed as diameter of inhibition zone at 0.5 mg/ml incubated for 24 hrs by agar diffusion method; format: functional; conditions: read-out: DIZ
[8] = system: Escherichia coli; experiment: Antibacterial activity against Escherichia coli ATCC 25922 assessed as reduction in bacterial growth incubated for 1 day by paper disk diffusion method; format: functional; conditions: ATCC 25922, 24 h
[9] = system: Candida albicans; experiment: Antifungal activity against Candida albicans ATCC 10231 assessed as diameter of inhibition zone at 0.5 mg/ml incubated for 24 hrs by agar diffusion method; format: functional; conditions: for zone of inhibition at 500 µg/mL: read-out: DIZ
[10] = system: Salmonella typhimurium; experiment: Antibacterial activity against Salmonella typhi ATCC 6539 assessed as reduction in bacterial growth incubated for 1 day by paper disk diffusion method; format: functional, Salmonella enterica subsp. enterica serovar Typhimurium; conditions: Salmonella enterica, ATCC 6539, 24 h
[11] = system: Aspergillus brasiliensis; experiment: Antifungal activity against Aspergillus brasiliensis ATCC 16404 assessed as diameter of inhibition zone at 0.5 mg/ml incubated for 72 hrs by agar diffusion method; format: functional; conditions: for zone of inhibition at 500 µg/mL: read-out: DIZ
[12] = system: Enterococcus faecalis; experiment: Antibacterial activity against Enterococcus faecalis ATCC 29212 assessed as reduction in bacterial growth incubated for 1 day by paper disk diffusion method; format: functional; conditions: ATCC 29212, 24 h
[13] = system: Staphylococcus aureus; experiment: Bactericidal activity against Staphylococcus aureus ATCC 29213 incubated for 24 hrs followed by transferring to freshly prepared broth medium and measured after 24 hrs by broth microdilution assay; format: functional; conditions: time 48 hrs
[14] = system: Salmonella typhimurium; experiment: Bactericidal activity against Salmonella typhi ATCC 6539 incubated for 24 hrs followed by transferring to freshly prepared broth medium and measured after 24 hrs by broth microdilution assay; format: functional, Salmonella enterica subsp. enterica serovar […]; conditions: Salmonella enterica, time 48 hrs
[15] = system: Escherichia coli; experiment: Bactericidal activity against Escherichia coli ATCC 25922 incubated for 24 hrs followed by transferring to freshly prepared broth medium and measured after 24 hrs by broth microdilution assay; format: functional; conditions: time 48 hrs
[16] = system: Enterococcus faecalis; experiment: Bactericidal activity against Enterococcus faecalis ATCC 29212 incubated for 24 hrs followed by transferring to freshly prepared broth medium and measured after 24 hrs by broth microdilution assay; format: functional; conditions: time 48 hrs

Row | Structure (SMILES) | zone of inhibition at 500 µg/mL [1] [mm] | zone of inhibition at 500 µg/mL [2] [mm] | MIC [3] [µg/mL] | zone of inhibition at 500 µg/mL [4] [mm] | MIC ([5]; ATCC 16404, 72 h, time 3 day) [µg/mL] | MIC ([6]; ATCC 10231, 24 h) [µg/mL] | zone of inhibition at 500 µg/mL [7] [mm] | MIC [8] [µg/mL] | zone of inhibition at 500 µg/mL [9] [mm] | MIC [10] [µg/mL] | zone of inhibition at 500 µg/mL [11] [mm] | MIC [12] [µg/mL] | MIC ([5]; time 3.0 day) | MBC [13] [µg/mL] | MIC [6] | diameter of the inhibition zone (DIZ) [9] | MBC [14] [µg/mL] | diameter of the inhibition zone (DIZ) [11] | MBC [15] [µg/mL] | MBC [16] [µg/mL]
1 | N#CC(C#N)=C1C(=O)Nc2ccc(S(=O)(=O)N3CCCCC3)cc21 | 17 | 10 | 133 (≈ 389 µM) | 12 | 62.5 (≈ 183 µM) | 125 (≈ 365 µM) | 13 | 125 (≈ 365 µM) | 16 | 143 (≈ 417 µM) | 16 | 62.5 (≈ 183 µM) | – | – | – | – | – | – | – | –
2 | CC(=O)C1=C(C)OC(N)=C(C#N)C12C(=O)Nc1ccc(S(=O)(=O)N3CCCCC3)cc12 (stereo not drawn) | 15 | 8 | 167 (≈ 376 µM) | 15 | 125 (≈ 282 µM) | 71.1 (≈ 161 µM) | 15 | 62.5 (≈ 141 µM) | 16 | 88.8 (≈ 201 µM) | 14 | 167 (≈ 376 µM) | – | – | – | – | – | – | – | –
3 | CCOC(=O)C1=C(C)OC(N)=C(C#N)C12C(=O)Nc1ccc(S(=O)(=O)N3CCCCC3)cc12 (stereo not drawn) | 18 | 17 | 83.3 (≈ 176 µM) | 13 | 143 (≈ 302 µM) | 62.5 (≈ 132 µM) | 17 | 35.5 (≈ 75.2 µM) | 15 | 125 (≈ 265 µM) | 10 | 71.1 (≈ 150 µM) | – | – | – | – | – | – | – | –
4 | CN(C)[C@@H]1C(O)=C(C(N)=O)C(=O)[C@@]2(O)C(O)=C3C(=O)c4c(O)cccc4[C@@](C)(O)[C@H]3C[C@@H]12 [TETRACYCLINE] | 22 | 25 | 62.5 (≈ 141 µM) | 21 | – | – | 23 | 15.6 (≈ 35.1 µM) | – | 62.5 (≈ 141 µM) | – | 62.5 (≈ 141 µM) | inactive | 87.5 (≈ 197 µM) | inactive | inactive | 81.2 (≈ 183 µM) | inactive | 18.7 (≈ 42.2 µM) | 37.5 (≈ 84.4 µM)
5 | CCOC(=O)C1=C(N)OC(C)=C(C(C)=O)C12C(=O)Nc1ccc(S(=O)(=O)N3CCCCC3)cc12 (stereo not drawn) | 20 | 10 | 125 (≈ 255 µM) | 15 | 143 (≈ 292 µM) | 71.1 (≈ 145 µM) | 16 | 17.8 (≈ 36.3 µM) | 13 | 71.1 (≈ 145 µM) | 10 | 31.2 (≈ 63.8 µM) | – | – | – | – | – | – | – | –
6 | CCOC(=O)C1=C(c2ccccc2)OC(N)=C(C#N)C12C(=O)Nc1ccc(S(=O)(=O)N3CCOCC3)cc12 (stereo not drawn) | 19 | 13 | 125 (≈ 233 µM) | 11 | 125 (≈ 233 µM) | 62.5 (≈ 116 µM) | 14 | 88.3 (≈ 165 µM) | 16 | 133 (≈ 248 µM) | 12 | 7.81 (≈ 14.6 µM) | – | – | – | – | – | – | – | –
7 | CCOC(=O)C1=C(N)OC(c2ccccc2)=C(C(=O)OCC)C12C(=O)Nc1ccc(S(=O)(=O)N3CCOCC3)cc12 (stereo not drawn) | 20 | 17 | 88.3 (≈ 151 µM) | 13 | 133 (≈ 228 µM) | 88.3 (≈ 151 µM) | 16 | 35.5 (≈ 60.9 µM) | 14 | 125 (≈ 214 µM) | 9 | 31.2 (≈ 53.5 µM) | – | – | – | – | – | – | – | –
8 | CCOC(=O)C1=C(C)OC(N)=C(C#N)C12C(=O)Nc1ccc(S(=O)(=O)N3CCOCC3)cc12 (stereo not drawn) | 14 | 16 | 133 (≈ 281 µM) | 15 | 167 (≈ 351 µM) | 88.3 (≈ 186 µM) | 19 | 31.2 (≈ 65.9 µM) | 18 | 133 (≈ 281 µM) | 10 | 88.3 (≈ 186 µM) | – | – | – | – | – | – | – | –
9 | CCOC(=O)/C(C#N)=C1\C(=O)Nc2ccc(S(=O)(=O)N3CCCCC3)cc21 | 15 | 7 | 167 (≈ 428 µM) | 11 | 88.3 (≈ 227 µM) | 125 (≈ 321 µM) | 14 | 62.5 (≈ 160 µM) | 16 | 125 (≈ 321 µM) | 15 | 133 (≈ 342 µM) | – | – | – | – | – | – | – | –
10 | CCOC(=O)C1=C(C)OC(N)=C(C(=O)OCC)C12C(=O)Nc1ccc(S(=O)(=O)N3CCOCC3)cc12 (stereo not drawn) | 16 | 14 | 125 (≈ 240 µM) | 10 | 133 (≈ 256 µM) | 125 (≈ 240 µM) | 18 | 31.2 (≈ 59.9 µM) | 13 | 142 (≈ 273 µM) | 11 | 62.5 (≈ 120 µM) | – | – | – | – | – | – | – | –
11 | CCOC(=O)C1=C(N)OC(c2ccccc2)=C(C(C)=O)C12C(=O)Nc1ccc(S(=O)(=O)N3CCCCC3)cc12 (stereo not drawn) | 20 | 18 | 88.3 (≈ 160 µM) | 15 | 125 (≈ 227 µM) | 62.5 (≈ 113 µM) | 20 | 17.8 (≈ 32.2 µM) | 13 | 88.3 (≈ 160 µM) | 17 | 17.8 (≈ 32.2 µM) | – | – | – | – | – | – | – | –
12 | CCOC(=O)C1=C(C)OC(N)=C(C(=O)OCC)C12C(=O)Nc1ccc(S(=O)(=O)N3CCCCC3)cc12 (stereo not drawn) | 19 | 13 | 88.3 (≈ 170 µM) | 13 | 133 (≈ 257 µM) | 88.3 (≈ 170 µM) | 12 | 71.1 (≈ 137 µM) | 12 | 88.3 (≈ 170 µM) | 12 | 35.5 (≈ 68.4 µM) | – | – | – | – | – | – | – | –

Reference: ChEMBL document CHEMBL4680155, “One-pot synthesis and molecular docking of some new spiropyranindol-2-one derivatives as immunomodulatory agents and in vitro antimicrobial potential with DNA gyrase inhibitor” (Eur J Med Chem, 2020)
